Measured values: patent US20250332442A1, “ORAL HYGIENE DEVICE AND SYSETM, AND USE METHOD” (CHANGSHA […] IN[…]., LTD., priority 2023, published 2025)

Legend:
Format in all cases: cell-based
[1] = test system: Enterococcus faecalis ATCC2921; assay: photodynamic sterilization experiment with root canal light guide needle device; conditions: red-light beam 630 nm, irradiation 30 s, tip of root canal light guide needle
Experimental: The photodynamic sterilization experiment on Enterococcus faecalis ATCC2921 is carried out using the device provided by the present disclosure and the photosensitizer toluidine blue O, and a red-light beam with a wavelength of 630 nm is selected to irradiate for 30 s.

[2] = test system: Actinobacillus actinomycetemcomitans; assay: photodynamic sterilization with periodontal light guide needle device (Embodiment 4); conditions: red light beam 630 nm, irradiation 30 s, tip of periodontal light guide needle
Text: The device of Embodiment 4 and photosensitizer toluidine blue O are used in cooperation to carry out photodynamic sterilization of Actinobacillus actinomycetemcomitans, and a red light beam with a wavelength of 630 nm is selected to irradiate for 30 s.

Porphyromonas gingivalis [3] = assay: photodynamic sterilization with pure flat light guide needle device (Embodiment 8); conditions: red light beam 630 nm, irradiation 30 s, tail end of pure flat light guide needle
Text: The device of Embodiment 8 and photosensitizer toluidine blue O are used in cooperation to carry out photodynamic sterilization of Porphyromonas gingivalis, and a red light beam with a wavelength of 630 nm is selected to irradiate for 30 s.

Enterococcus faecalis = assay: photodynamic sterilization experiment with constant-current source device (Embodiment 12); conditions: red light 630 nm and blue light 430 nm, irradiation 30 seconds, device of Embodiment 12
Text: (§1) The device of Embodiment 12 and photosensitizer toluidine blue O are used in cooperation to carry out the photodynamic sterilization experiment on Porphyromonas gingivalis and Enterococcus faecalis. A red light beam with a wavelength of 630 nm and a blue light beam with a wavelength of 430 nm are used to irradiate for 30 seconds.

Porphyromonas gingivalis [4] = assay: as above; conditions: red light 630 nm and blue light 430 nm, irradiation 30 seconds, device of Embodiment 12
Text: as §1

Measured: sterilization efficiency

Cc1cc2nc3ccc(=[N+](C)C)cc-3sc2cc1N [toluidine blue O]
99%: all assays above
